Experimental data from patent US12233161B1, “Lipids and lipid nanoparticle formulations” (LONGUIDE BIOPHARMA CORPORATION, priority 2024, dated 2025).
Values belong to the compound of their own block, whether it stands above or below them.

Key:
[1] = Particle size and PDI of nucleic acid lipid nanoparticle preparations by dynamic light scattering; type: physicochemical
Procedure: The 7.5 μL nucleic acid lipid nanoparticle solution (containing approximately 0.04 mg/mL mRNA) was taken and added with 200 μL ultrapure water, mixed by gentle blowing using a pipette tip, and the particle size of the nanopreparation was detected by dynamic lightscattering (DLS) using a Malvern Dynamic Light Scattering Instrument (Malvern Instruments Ltd., ZEN3700, UK).
27.5 μL nucleic acid lipid nanoparticle solution (containing about 0.04 mg/mL mRNA) was taken and added with 200 μL ultrapure water. A pipette tip was used to gently blow the sample and mix well. The particle size of the nanopreparation was detected by Malvern Dynamic Light Scattering Instrument (Malvern Instruments Ltd., ZEN3700, UK). After the detection, the sample was recovered to an EP tube, and 600 μL of ultrapure water was added, gently blown with a pipette tip, and the potential of the nanopreparation was measured by a Malvern particle size meter.

mice = assay: In vivo delivery of FLuc-mRNA lipid nanoparticles in mice, in vivo imaging (IVIS)
Outline: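 Mice (n=3) received about 75 μL FLuc-mRNA LNP per mouse intramuscularly (rectus femoris), intravenously (tail vein), intraperitoneally or subcutaneously (back). After injection, D-luciferin (200 μL, 15 mg/mL) was given i.p. 10-15 min before IVIS imaging.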

[2] = DMG-PEG2000:DSPC:Chol:Lipid 1.00:11.50:22.50:65.00, N/P 45, mRNA LNP
[3] = DMG-PEG2000:DSPC:Chol:Lipid 1.00:16.00:48.00:35.00, N/P 30, mRNA LNP
[4] = DMG-PEG2000:DSPC:Chol:Lipid 1.40:11.15:38.95:48.50, N/P 45, mRNA LNP
[5] = DMG-PEG2000:DSPC:Chol:Lipid 1.00:11.50:22.50:65.00, N/P 45, IV, liver
[6] = DMG-PEG2000:DSPC:Chol:Lipid 1.00:11.50:22.50:65.00, N/P 45, IV, lung
[7] = DMG-PEG2000:DSPC:Chol:Lipid 1.00:11.50:22.50:65.00, N/P 45, IV, spleen
[8] = DMG-PEG2000:DSPC:Chol:Lipid 1.00:16.00:48.00:35.00, N/P 30, IV, liver
[9] = DMG-PEG2000:DSPC:Chol:Lipid 1.00:16.00:48.00:35.00, N/P 30, IV, lung
[10] = DMG-PEG2000:DSPC:Chol:Lipid 1.00:16.00:48.00:35.00, N/P 30, IV, spleen
[11] = DMG-PEG2000:DSPC:Chol:Lipid 1.40:11.15:38.95:48.50, N/P 48, mRNA LNP
[12] = DMG-PEG2000:DSPC:Chol:Lipid 1.77:14.07:49.16:35.00, N/P 48, mRNA LNP
[13] = DMG-PEG2000:DSPC:Chol:Lipid 1.09:8.66:30.25:60.00, N/P 13.3, mRNA LNP
[14] = DMG-PEG2000:DSPC:Chol:Lipid 1.40:11.15:38.95:48.50, N/P 13.3, mRNA LNP
[15] = DMG-PEG2000:DSPC:Chol:Lipid 1.40:11.15:38.95:48.50, N/P 16.7, mRNA LNP
[16] = DMG-PEG2000:DSPC:Chol:Lipid 1.00:16.00:48.00:35.00, N/P 18, mRNA LNP
[17] = DMG-PEG2000:DSPC:Chol:Lipid 1.50:4.00:69.50:25.00, N/P 18, mRNA LNP
[18] = DMG-PEG2000:DSPC:Chol:Lipid 1.50:16.00:17.50:65.00, N/P 45, mRNA LNP
[19] = DMG-PEG2000:DSPC:Chol:Lipid 1.77:14.07:49.16:35.00, N/P 30, mRNA LNP
[20] = DMG-PEG2000:DSPC:Chol:Lipid 1.00:16.00:48.00:35.00, N/P 18, IV, liver
[21] = DMG-PEG2000:DSPC:Chol:Lipid 1.00:16.00:48.00:35.00, N/P 18, IV, lung
[22] = DMG-PEG2000:DSPC:Chol:Lipid 1.00:16.00:48.00:35.00, N/P 18, IV, spleen
[23] = DMG-PEG2000:DSPC:Chol:Lipid 1.50:16.00:17.50:65.00, N/P 45, IV, liver
[24] = DMG-PEG2000:DSPC:Chol:Lipid 1.50:16.00:17.50:65.00, N/P 45, IV, lung
[25] = DMG-PEG2000:DSPC:Chol:Lipid 1.50:16.00:17.50:65.00, N/P 45, IV, spleen

Compound: CCCCCCOCOCCCCCCOC(=O)C(O)CN(CCCN(C)CCCN(CC(O)C(=O)OCCCCCCOCOCCCCCC)CC(O)C(=O)OCCCCCCOCOCCCCCC)CC(O)C(=O)OCCCCCCOCOCCCCCC (stereo not shown) [Compound L0271]
PDI [1, 13]: 0.06 ± 0.01
Particle size [1, 13]: 145.73 ± 2.21 nm
PDI [1, 14]: 0.04 ± 0.03
Particle size [1, 14]: 124.63 ± 0.70 nm
IVIS (mice; DMG-PEG2000:DSPC:Chol:Lipid 1.09:8.66:30.25:60.00, N/P 13.3, IM, whole body scan): 3.27 × 10^6
IVIS (mice; DMG-PEG2000:DSPC:Chol:Lipid 1.40:11.15:38.95:48.50, N/P 13.3, IV, whole body scan): 4.16 × 10^8

Compound: CCCCCCOCOCCCCCCOC(=O)C(O)CN(CCN(C)CCN(CC(O)C(=O)OCCCCCCOCOCCCCCC)CC(O)C(=O)OCCCCCCOCOCCCCCC)CC(O)C(=O)OCCCCCCOCOCCCCCC (stereo not shown) [Compound L0272]
PDI [1, 15]: 0.09 ± 0.02
Particle size [1, 15]: 137.20 ± 0.61 nm
IVIS (mice; DMG-PEG2000:DSPC:Chol:Lipid 1.40:11.15:38.95:48.50, N/P 16.7, IM, whole body scan): 9.96 × 10^7
IVIS (mice; DMG-PEG2000:DSPC:Chol:Lipid 1.40:11.15:38.95:48.50, N/P 16.7, IV, whole body scan): 9.45 × 10^8
in vivo delivery efficiency as compared to the benchmark compound SM102 (mice; certain formulations, Table 2): superior in vivo delivery efficiency

Compound: CCCCCCCCCCCCNC(=O)C(O)CN(CCCN(CCCCCCO)CCCN(CC(O)C(=O)NCCCCCCCCCCCC)CC(O)C(=O)NCCCCCCCCCCCC)CC(O)C(=O)NCCCCCCCCCCCC (stereo not shown) [Compound L0274]
PDI [1, 16]: 0.15 ± 0.01
Particle size [1, 16]: 93.07 ± 0.26 nm
PDI [1, 17]: 0.12 ± 0.00
Particle size [1, 17]: 88.12 ± 0.68 nm
PDI [1, 18]: 0.47 ± 0.04
Particle size [1, 18]: 232.87 ± 6.17 nm
PDI [1, 19]: 0.13 ± 0.01
Particle size [1, 19]: 79.38 ± 0.91 nm
IVIS (mice; DMG-PEG2000:DSPC:Chol:Lipid 1.00:16.00:48.00:35.00, N/P 18, IV, body): 3.12 × 10^8
% of organ targeting (mice; [20]): 29.22%
IVIS (mice; [20]): 4.76 × 10^7
% of organ targeting (mice; [21]): 8.16%
IVIS (mice; [21]): 1.33 × 10^7
% of organ targeting (mice; [22]): 62.62%
IVIS (mice; [22]): 1.02 × 10^8
IVIS (mice; DMG-PEG2000:DSPC:Chol:Lipid 1.50:4.00:69.50:25.00, N/P 18, IM, whole body scan): 6.20 × 10^6
IVIS (mice; DMG-PEG2000:DSPC:Chol:Lipid 1.50:16.00:17.50:65.00, N/P 45, IV, body): 1.52 × 10^8
% of organ targeting (mice; [23]): 1.10%
IVIS (mice; [23]): 4.17 × 10^6
% of organ targeting (mice; [24]): 84.18%
IVIS (mice; [24]): 3.19 × 10^8
% of organ targeting (mice; [25]): 14.72%
IVIS (mice; [25]): 5.58 × 10^7
IVIS (mice; DMG-PEG2000:DSPC:Chol:Lipid 1.77:14.07:49.16:35.00, N/P 30, IM, whole body scan): 1.23 × 10^7
in vivo delivery efficiency as compared to the benchmark compound SM102 (mice; certain formulations, Table 2): superior in vivo delivery efficiency
tissue-targeting specificity (lung vs spleen depending on molar percentage of compound) (mice; certain formulations, Table 2): strong tissue-targeting specificity

Second part, led by results:

PDI [1, 2]: 0.06 ± 0.01
Particle size [1, 2]: 128.20 ± 0.89 nm
PDI [1, 3]: 0.11 ± 0.01
Particle size [1, 3]: 125.17 ± 1.03 nm
PDI [1, 4]: 0.10 ± 0.01
Particle size [1, 4]: 142.10 ± 0.78 nm
Compound: CCCCCCCCCCCCOC(=O)C(O)CN(CCCN(CC(O)C(=O)OCCCCCCCCCCCC)CC(O)C(=O)OCCCCCCCCCCCC)CCCN(CC(O)C(=O)OCCCCCCCCCCCC)CC(O)C(=O)OCCCCCCCCCCCC (stereo not shown) [Compound L0269]
IVIS (mice; DMG-PEG2000:DSPC:Chol:Lipid 1.00:11.50:22.50:65.00, N/P 45, IV, body): 9.49 × 10^8
% of organ targeting (mice; [5]): 69.52%
IVIS (mice; [5]): 2.05 × 10^8
% of organ targeting (mice; [6]): 0.64%
IVIS (mice; [6]): 1.88 × 10^6
% of organ targeting (mice; [7]): 29.84%
IVIS (mice; [7]): 8.80 × 10^7
IVIS (mice; DMG-PEG2000:DSPC:Chol:Lipid 1.00:16.00:48.00:35.00, N/P 30, IV, body): 5.46 × 10^8
% of organ targeting (mice; [8]): 28.77%
IVIS (mice; [8]): 7.87 × 10^7
% of organ targeting (mice; [9]): 0.33%
IVIS (mice; [9]): 8.92 × 10^5
% of organ targeting (mice; [10]): 70.91%
IVIS (mice; [10]): 1.94 × 10^8
IVIS (mice; DMG-PEG2000:DSPC:Chol:Lipid 1.40:11.15:38.95:48.50, N/P 45, IM, whole body scan): 3.83 × 10^7
in vivo delivery efficiency as compared to the benchmark compound SM102 (mice; certain formulations, Table 2): superior in vivo delivery efficiency

PDI [1, 11]: 0.12 ± 0.00
Particle size [1, 11]: 131.00 ± 1.32 nm
PDI [1, 12]: 0.10 ± 0.03
Particle size [1, 12]: 144.83 ± 1.39 nm
Compound: CCCCCCOCOCCCCCCOC(=O)C(O)CN(CCCN(CC(O)C(=O)OCCCCCCOCOCCCCCC)CC(O)C(=O)OCCCCCCOCOCCCCCC)CCCN(CC(O)C(=O)OCCCCCCOCOCCCCCC)CC(O)C(=O)OCCCCCCOCOCCCCCC (stereo not shown) [Compound L0270]
IVIS (mice; DMG-PEG2000:DSPC:Chol:Lipid 1.40:11.15:38.95:48.50, N/P 48, IM, whole body scan): 2.09 × 10^7
IVIS (mice; DMG-PEG2000:DSPC:Chol:Lipid 1.40:11.15:38.95:48.50, N/P 48, IV, whole body scan): 1.56 × 10^9
IVIS (mice; DMG-PEG2000:DSPC:Chol:Lipid 1.77:14.07:49.16:35.00, N/P 48, IH, whole body scan): 2.89 × 10^6
in vivo delivery efficiency as compared to the benchmark compound SM102 (mice; certain formulations, Table 2): superior in vivo delivery efficiency
